# Reference: patent publication US20170348258A1, “3-Amino Benzamide Derivative Serving As B-Lactam Auxiliary Antibiotic, Preparation Method and Use Thereof” (THE HONG KONG POLYTECHNIC UNIVERSITY, priority 2014, published 2017)
# Columns and labels:
# [1] = test system: B. subtilis 168; assay: Antibacterial susceptibility test (MIC, microbroth dilution); assay type: cell-based; conditions: 18 hours at 37° C., >90% inhibition of bacterial growth; read-out: MIC, BS 168
# Description: (§1) The bacterial strains used in microbial susceptibility test were E. coli, S. aureus 29213 and B. subtilis 168. E. coli and S. aureus 29213 were obtained from the laboratory of the Hong Kong Polytechnic University. B. subtilis 168 was purchased from American Type Culture Collection (USA). The mammalian cell lines L929 (mouse peritoneal fibroblast), LCC6 (a wild type breast cancer cell line), LCC6MDR (P-gp over-expressed breast cancer cell line) were stocks in our department. Nutrient Agar, tryptone and yeast extract were purchased from Oxoid Limited (Nepean, Ontario, Canada). Luria-Bertani (LB) medium was prepared from 2 g tryptone, 1 g yeast extract, and 2 g sodium chloride in 200 ml deionized water and sterilized. Müller-Hinton broth (MHB), cation-adjusted Müller-Hinton broth (MHB) and trypticase soy broth (TSB) for microbial susceptibility test were purchased from Becton, Dickinson and Company (New Jersey, USA). A microplate reader (Bio-Rad Laboratories Model 680) is used to measure bacterial growth and cytotoxicity. An Olympus FSX100® Bio Imaging Navigator Microscope was used to observe the morphology of B. subtilis cell.
# (§2) The minimum inhibitory concentration (MIC) of each compound was determined using microbroth dilution method according to the National Committee for Clinical Laboratory Standards (CLSI) guidelines. All Compounds were dissolved in DMSO and diluted in a serial two-fold manner. A single colony of bacterial strain on a TSB agar plate was inoculated in 5 mL MHB or CA-MHB. The bacterial cells were incubated at 37° C. until the optimal density (OD600) of the growing cells reached 1.0. The cells were then diluted to a final concentration of approximately 5×10^5 CFU/mL in a serial two-fold manner in a 96-well microtiter plate (Iwaki, Japan). Compound 3 and PC190723 were used as positive controls. […] Table 1 below summarizes the MIC of all synthesized compounds.
# [2] = test system: E. coli; assay: as above; assay type: cell-based; conditions: 18 hours at 37° C., >90% inhibition of bacterial growth
# Description: as §1, §2
# [3] = test system: S. aureus 29213; assay: as above; assay type: cell-based; conditions: 18 hours at 37° C., >90% inhibition of bacterial growth
# Description: as §1, §2
# [4] = test system: MRSA strain USA300#757; assay: Fractional Inhibitory Concentration Index (FICI) determination; assay type: cell-based, S. aureus
# Description: The bacterial strains used in this study were clinically isolated MRSA strains USA300#757 and #2960 which were obtained from our laboratory. Determination of the Fractional Inhibitory Concentration Index (FICI) was adopted by the Müller-Hinton broth (MHB) dilution method as previously described. Twelve serial two-fold dilutions of PC190723, F332 and F361 were prepared in the 96-well microplate with concentration ranging from 512 to 0.25 μg/mL. […] Lastly, the compounds and the β-lactams were mixed at a 1:1 ratio and subjected to two-fold dilution as described previously. Each microplate well contained 100 μL of MHB supplemented with compounds alone, β-lactams alone or the mixture of compounds and β-lactams. Overnight cultures of S. aureus in the Müller-Hinton broth was diluted to OD595 of 0.08-0.1 in saline and added in each of the microplate well. The plates were incubated at 37° C. for 20 h. All tests were performed in duplicate and the inhibition of bacterial growth was determined by visualization. The FICI of compounds and β-lactams were calculated as followed: FICI=(MIC of combination of compound and β-lactam/MIC of compound alone)+(MIC of combination of compound and β-lactam/MIC of β-lactam alone).
# [5] = test system: MRSA strain USA300#2960; assay: as above; assay type: cell-based, S. aureus
# Description: The bacterial strains used in this study were clinically isolated MRSA strains USA300#757 and #2960 which were obtained from our laboratory. Determination of the Fractional Inhibitory Concentration Index (FICI) was adopted by the Müller-Hinton broth (MHB) dilution method as previously described. Twelve serial two-fold dilutions of PC190723, F332 and F361 were prepared in the 96-well microplate with concentration ranging from 512 to 0.25 μg/mL. A series of two-fold dilutions of ampicillin, cloxacillin and cefuroxime were also prepared following the same procedure. Lastly, the compounds and the β-lactams were mixed at a 1:1 ratio and subjected to two-fold dilution as described previously. Each microplate well contained 100 μL of MHB supplemented with compounds alone, β-lactams alone or the mixture of compounds and β-lactams. Overnight cultures of S. aureus in the Müller-Hinton broth was diluted to OD595 of 0.08-0.1 in saline and added in each of the microplate well. The plates were incubated at 37° C. for 20 h. All tests were performed in duplicate and the inhibition of bacterial growth was determined by visualization. The FICI of compounds and β-lactams were calculated as followed: FICI=(MIC of combination of compound and β-lactam/MIC of compound alone)+(MIC of combination of compound and β-lactam/MIC of β-lactam alone).
smiles,measurement,setting,value
"NC(=O)c1c(F)ccc(OCc2nc3cc(Cl)cnc3s2)c1F [PC190723, reference compound]",MIC,[1],0.5 µM
same,MIC,[2],>2 µM
same,MIC,[3],0.5 µM
same,FICI with Cefotaxime,[4],1.02
same,FICI with Meropenem,[4],0.31
same,FICI with Cefotaxime,[5],1.03
same,FICI with Meropenem,[5],0.63
